Laboratory results reported in paper PMC6944674, “Comparison of the Hepatotoxic Potential of Two Treatments for Autosomal-Dominant Polycystic Kidney DiseaseUsing Quantitative Systems Toxicology Modeling” (Pharmaceutical Research, 2020).

Experiments:
[1] = test system: mitochondrial electron transport chain; test: ETC inhibition parameter from MITOsym simulation of OCR data, translated to DILIsym; conditions: calculated from 24 h HepG2 OCR data and measured intracellular concentrations; lower = higher risk
From the text: The parameters calculated in this manner were then translated to DILIsym parameters using a conversion factor based on the relative activity of rotenone in the in vitro vs. in vivo environment (7).

[2] = test system: RNS/ROS formation; test: RNS/ROS production parameter from DILIsym simulation of ROS data; conditions: calculated from 24 h HepG2 ROS data; higher = higher risk
Experimental: To define the DILIsym parameter values for lixivaptan- and WAY-138451-mediated oxidative stress, the 24 h in vitro data were simulated within DILIsym (Fig. 5). The intracellular concentration of each compound was measured by LC/MS/MS analysis. For lixivaptan, the measured intracellular concentration at each dose was used to parameterize the model. For WAY-138451, however, the LC/MS/MS data was inconsistent at low doses due to lower limit of detection issues. Thus, the mean measured cell-to-nominal-media ratio (0.672) was used to estimate intracellular concentrations at each dose. Reproduction of lixivaptan- and WAY-138451-mediated induction of oxidative stress defined the relationship between liver compound concentration and ROS formation with the reactive nitrogen/oxygen species (RNS/ROS) production rate constants listed in Table 2. […]
To define the DILIsym parameter values for lixivaptan- and WAY-138451-mediated oxidative stress, the 24 hour in vitro data were simulated within DILIsym (Figure B12). The intracellular concentration of each compound was measured by LC/MS/MS analysis. For lixivaptan, the measured intracellular concentration at each dose was used to parameterize the model. […] Thus, the mean measured cell-to-nominal-media ratio (0.672) was used to estimate intracellular concentrations at each dose. […]

[3] = Intracellular concentration by LC/MS/MS in HepG2 cultures parallel to ROS high-content screening; format: in vitro ADME; conditions: human, HepG2 cells, High content screening medium
Experimental: (§1) To assess the intracellular concentration of lixivaptan and its metabolites, an identical HepG2 culture was established in parallel and cell lysate concentrations of each test article were measured by LC/MS/MS analysis. Intracellular concentrations of the compounds were calculated by correcting for cell lysate volume (100 µL) and the volume of HepG2 cells in each well, which was calculated by multiplying cell count per well by cellular volume per cell (2.85 pl/cell for HepG2). One independent study in triplicate was conducted to assess intracellular concentrations of the test articles for the ROS (high-content imaging) studies.

[4] = test system: HepG2 cells; test: as above; format: in vitro ADME; conditions: High content screening medium; for CIntracellular Fraction: cell lysate
Experimental: as §1

[5] = set-up: method as in proprietary data not shown; conditions: rat tissue distribution study; ref proprietary data not shown; cited from earlier work

Kp at 5 µM ([3]; dose 5 µM): 17.6 ± 18.4
Kp at 10 µM ([3]; dose 10 µM): 39.7 ± 6.49
Kp at 25 µM ([3]; dose 25 µM): 19.9 ± 4.54
Kp at 40 µM ([3]; dose 40 µM): 12.9 ± 2.68
CExtracellular Fraction ([4]; dose 0.01 µM): 0.000 ± 0.000 µM
CHepatocyte ([4]; dose 0.01 µM): 0.000 ± 0.000 µM
CIntracellular Fraction ([4]; dose 0.01 µM): 0.000 ± 0.000 µM
CExtracellular Fraction ([4]; dose 0.1 µM): 0.001 ± 0.001 µM
CHepatocyte ([4]; dose 0.1 µM): 0.000 ± 0.000 µM
CIntracellular Fraction ([4]; dose 0.1 µM): 0.000 ± 0.000 µM
CExtracellular Fraction ([4]; dose 0.5 µM): 0.020 ± 0.001 µM
CHepatocyte ([4]; dose 0.5 µM): 0.000 ± 0.000 µM
CIntracellular Fraction ([4]; dose 0.5 µM): 0.000 ± 0.000 µM
CExtracellular Fraction ([4]; dose 1 µM): 0.047 ± 0.001 µM
CHepatocyte ([4]; dose 1 µM): 0.000 ± 0.000 µM
CIntracellular Fraction ([4]; dose 1 µM): 0.000 ± 0.000 µM
CExtracellular Fraction ([4]; dose 5 µM): 0.345 ± 0.011 µM
CHepatocyte ([4]; dose 5 µM): 6.02 ± 6.30 µM
CIntracellular Fraction ([4]; dose 5 µM): 0.0013 ± 0.0016 µM
CExtracellular Fraction ([4]; dose 10 µM): 0.736 ± 0.055 µM
CHepatocyte ([4]; dose 10 µM): 28.44 ± 5.12 µM
CIntracellular Fraction ([4]; dose 10 µM): 0.0054 ± 0.0032 µM
CExtracellular Fraction ([4]; dose 25 µM): 2.751 ± 0.143 µM
CHepatocyte ([4]; dose 25 µM): 55.57 ± 15.10 µM
CIntracellular Fraction ([4]; dose 25 µM): 0.0093 ± 0.0055 µM
CExtracellular Fraction ([4]; dose 40 µM): 5.773 ± 0.508 µM
CHepatocyte ([4]; dose 40 µM): 71.75 ± 11.05 µM
CIntracellular Fraction ([4]; dose 40 µM): 0.0114 ± 0.0058 µM
Compound: Cc1ccc(F)cc1C(=O)Nc1ccc(C(=O)N2Cc3cccn3Cc3ccccc32)c(Cl)c1 [Lixivaptan, lixivaptan]
Coefficient for ETC inhibition (DILIsym parameter) [1]: 535 µM
RNS/ROS production rate constant (DILIsym parameter) [2]: 0.151 M⁻¹ s⁻¹
measured liver-to-plasma ratio [5]: 17
